Reference: US6737383B1, “Herbicidal oxadiazolidines” (priority 1999, dated 2004)

How the values were obtained:
surinam grass = test: Test B pre/postemergence surinam grass; assay type: in vivo, Brachiaria decumbens; conditions: Postemergence
Outline: (§1)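 Response is a visual 0-to-10 score relative to untreated plants, where 0 means no effect and 10 means complete control, taken twelve to sixteen days after application. Treatments went onto soil at planting and onto foliage of 1- to 4-leaf plants, using a surfactant-containing non-phytotoxic solvent.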

wild oat = test: Test B pre/postemergence wild oat; assay type: in vivo, Avena fatua
Outline: as §1

bedstraw = test: Test B pre/postemergence bedstraw; assay type: in vivo, Galium aparine
Outline: as §1

blackgrass = test: Test B pre/postemergence blackgrass; assay type: in vivo, Alopecurus myosuroides
Outline: as §1

sugar beet = test: Test B pre/postemergence sugar beet; assay type: in vivo, Beta vulgaris
Outline: as §1

soybean = test: Test B pre/postemergence soybean; assay type: in vivo, Glycine max
Outline: as §1

cocklebur = test: Test B pre/postemergence cocklebur; assay type: in vivo, Xanthium strumarium
Outline: as §1

duck salad = test: Test B flood test duck salad; assay type: in vivo, Heteranthera limosa
Outline: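 Flood test on plants grown to the 2-leaf stage; treated plants kept in greenhouse twelve to sixteen days, then visually rated against controls on a 0 (no effect) to 10 (complete control) scale.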

rape = test: Test B pre/postemergence rape; assay type: in vivo, Brassica napus
Outline: as §1

[1] = Postemergence, Rate 62 g/ha, scale 0 to 10, 0 is no effect, 10 is complete control
[2] = Postemergence, Rate 250 g/ha, scale 0 to 10, 0 no effect, 10 complete control
[3] = Preemergence, Rate 125 g/ha, scale 0 to 10 (0 no effect, 10 complete control)
[4] = Preemergence, Rate 250 g/ha, scale of 0 to 10 where 0 is no effect and 10 is complete control
[5] = Preemergence, Rate 500 g/ha, scale 0 (no effect) to 10 (complete control)
[6] = Rate 125 g/ha, Postemergence, scale 0 to 10, 0 no effect, 10 complete control
[7] = Preemergence, Rate 62 g/ha, scale 0 to 10, 0 is no effect, 10 is complete control
[8] = Rate 500 g/ha, Postemergence, 0 to 10 scale (0 no effect, 10 complete control)

In the case of `Cc1cccc(C)c1-n1c(=O)on(C(=O)N(c2ccc(F)cc2)C(C)C)c1=O` [Compound 18], the “B. signalgrass plant response rating” value (surinam grass; Rate 125 g/ha, scale 0 to 10, 0 no effect, 10 complete control) is reported as 0, the “B. signalgrass plant response rating” value (surinam grass; Rate 500 g/ha, 0 to 10 scale (0 no effect, 10 complete control)) is reported as 2 and the “Wild oats plant response rating” value (wild oat; [1]) is reported as 0. The “Wild oats plant response rating” value (wild oat; [2]) was 0, the “Plant response rating, Wild oats” value (wild oat; [3]) was 0 and the “Plant response rating, Wild oats” value (wild oat; [4]) was 0. The “Wild oats plant response rating” value (wild oat; [5]) was 5, the “Wild oats plant response rating” value (wild oat; [6]) was 0 and the “Bedstraw plant response rating” value (bedstraw; [1]) was 2. For the same molecule, the “Bedstraw plant response rating” value (bedstraw; [2]) was 7, the “Plant response rating, Bedstraw” value (bedstraw; [7]) was 0 and the “Plant response rating, Bedstraw” value (bedstraw; [3]) was 0. For the same molecule, the “Plant response rating, Bedstraw” value (bedstraw; [4]) was 0, the “Bedstraw plant response rating” value (bedstraw; [5]) was 3 and the “Bedstraw plant response rating” value (bedstraw; [6]) was 7. The “Bedstraw plant response rating” value (bedstraw; [8]) was 9, the “Blackgrass plant response rating” value (blackgrass; [1]) was 0 and the “Blackgrass plant response rating” value (blackgrass; [2]) was 3. For the same molecule, the “Plant response rating, Blackgrass” value (blackgrass; [7]) was 2, the “Plant response rating, Blackgrass” value (blackgrass; [3]) was 0 and the “Plant response rating, Blackgrass” value (blackgrass; [4]) was 5. The “Blackgrass plant response rating” value (blackgrass; [5]) was 5, the “Blackgrass plant response rating” value (blackgrass; [6]) was 0 and the “Blackgrass plant response rating” value (blackgrass; [8]) was 3. The “Sugarbeets plant response rating” value (sugar beet; [1]) was 0, the “Sugarbeets plant response rating” value (sugar beet; [2]) was 0 and the “Plant response rating, Sugarbeets” value (sugar beet; [7]) was 0. The “Plant response rating, Sugarbeets” value (sugar beet; [3]) was 0, the “Plant response rating, Sugarbeets” value (sugar beet; [4]) was 2 and the “Sugarbeets plant response rating” value (sugar beet; [5]) was 4. The “Sugarbeets plant response rating” value (sugar beet; [6]) was 0, the “Soybean plant response rating” value (soybean; [1]) was 2 and the “Soybean plant response rating” value (soybean; [2]) was 3. For the same molecule, the “Plant response rating, Soybean” value (soybean; [7]) was 0, the “Plant response rating, Soybean” value (soybean; [3]) was 0 and the “Plant response rating, Soybean” value (soybean; [4]) was 0. For the same molecule, the “Soybean plant response rating” value (soybean; [5]) was 0, the “Soybean plant response rating” value (soybean; [6]) was 3 and the “Cocklebur plant response rating” value (cocklebur; [1]) was 0. The “Cocklebur plant response rating” value (cocklebur; [2]) was 1, the “Plant response rating, Cocklebur” value (cocklebur; [7]) was 0 and the “Plant response rating, Cocklebur” value (cocklebur; [3]) was 0. The “Plant response rating, Cocklebur” value (cocklebur; [4]) was 0, the “Cocklebur plant response rating” value (cocklebur; [5]) was 0 and the “Cocklebur plant response rating” value (cocklebur; [6]) was 0. For the same molecule, the “Cocklebur plant response rating” value (cocklebur; [8]) was 2, the “Ducksalad plant response rating” value (duck salad; [1]) was 0 and the “Ducksalad plant response rating” value (duck salad; Rate 62 g/ha, headed Pre-emergence (flood test species), scale 0 to 10 (0 no effect, 10 complete control)) was 0. For the same molecule, the “Ducksalad plant response rating” value (duck salad; Rate 125 g/ha, Postemergence section (flood test species), scale 0 to 10, 0 no effect, 10 complete control) was 7, the “Ducksalad plant response rating” value (duck salad; Rate 125 g/ha, Pre-emergence, flood test species, scale 0 to 10 where 0 is no effect and 10 is complete control) was 0 and the “Ducksalad plant response rating” value (duck salad; Rate 250 g/ha, headed Pre-emergence (flood test species), scale 0 to 10 (0 no effect, 10 complete control)) was 0. The “Ducksalad plant response rating” value (duck salad; Rate 500 g/ha, Postemergence section of Table B, 0 to 10 scale (0 no effect, 10 complete control)) was 7, the “Plant response rating, Ducksalad” value (duck salad; Rate 500 g/ha, headed Pre-emergence (flood test species), scale 0 to 10 (0 no effect, 10 complete control)) was 1 and the “Ducksalad plant response rating” value (duck salad; Rate 1000 g/ha, Pre-emergence (as headed), scale 0 to 10) was 0. For the same molecule, the “Ducksalad plant response rating” value (duck salad; Rate 2000 g/ha, Pre-emergence (as headed), scale 0 to 10) was 0, the “Ducksalad plant response rating” value (duck salad; flood test, listed under Postemergence, Rate 250 g/ha, scale 0 to 10, 0 no effect, 10 complete control) was 7 and the “Rape plant response rating” value (rape; [1]) was 0. For the same molecule, the “Rape plant response rating” value (rape; [2]) was 0, the “Plant response rating, Rape” value (rape; [7]) was 0 and the “Plant response rating, Rape” value (rape; [3]) was 0. The “Plant response rating, Rape” value (rape; [4]) was 0, the “Rape plant response rating” value (rape; [5]) was 2 and the “Rape plant response rating” value (rape; [6]) was 0. The “Rape plant response rating” value (rape; [8]) was 1.
